In article PMC6290777, “Inhalation of the prodrug PI3K inhibitor CL27c improves lung function in asthma and fibrosis” (Nature Communications, 2018):

How the values were obtained:
[1] = system: OVA-induced chronic allergic asthma; assay: OVA-induced chronic allergic asthma model; assay type: in vivo, BALB/c mice
Procedure: BALF was performed to obtain leukocytes from alveolar space. The trachea was exposed and a 1.7-mm-outside-diameter polyethylene catheter was inserted. BAL was performed by washing the lungs three-times with three different 500 µl aliquots of PBS. BALF samples were centrifuged at 600 × g for 10 min at 4 °C on a histology glass slide and stained with Diff Quick (MICROPTIC, #DQ-ST). The number of leukocytes and differential counts of different population were obtained evaluating the percentage leukocyte populations over the total cell number.
Mice were anesthetized with a subcutaneous injection of ketamine and xylazine (130 mg/Kg ketamine and 8.5 mg/Kg xylazine) to maintain spontaneous breathing under anesthesia. Mice were tracheostomized, placed in a body plethysmograph and connected to a computer-controlled ventilator (Forced Pulmonary Maneuver System®, Buxco Research Systems©, Wilmington, North Carolina USA). First, an average breathing frequency of 160 breaths/min was imposed to the anesthetized animal by a pressure-controlled ventilation until a regular breathing pattern and complete expiration at each breathing cycle was obtained. Under mechanical respiration, respiratory flow and airway pressure were measured to compute dynamic compliance (Cdyn) and lung resistance (RL). To measure the TLC, pressure–volume maneuvers were performed, where lungs were inflated to a standard pressure of +30 cm H2O and then let slowly exhale until a negative pressure of −30 cm H2O was reached. To measure the FEV Fast-Flow Volume maneuvers was performed. In this maneuver, lungs were first inflated to +30 cm H2O (TLC) and, immediately, a negative pressure (−30 cm H2O) was applied in order to enforce expiration. To evaluate AHR, the same mice used in previous maneuvers (basal condition) received Metacholine, 1 mg/Kg (Acetyl-β-methylcholine chloride, A-2251, Sigma-Aldrich St.Louis, MO,USA) i.v., and 20 sec after, a new set of maneuvers were conducted to assess RL changes. Suboptimal maneuvers were rejected and for each test in every single mouse at least three acceptable maneuvers were conducted to obtain a reliable mean for all numeric parameters.
On day 1, BALB/c mice received systemic immunization by subcutaneous injection of 10 µg of chicken egg ovalbumin (OVA grade V, >98% pure; Sigma, St Louis, MO) diluted in 2 mg/mL Al(OH)3 followed by a booster injection at the day 14 (described in fig. 3). Nasal challenges were performed starting at the day 28, by inhalational exposure to aerosolised ovalbumin (1% ovalbumin in saline 0,9%) for 20 min per day, in alternated days during 16 days (day 28, 30, 32, 34, 36, 38, 40, 42 and 44). At the same time, mice received daily treatment from day 28 to 44 with CL27c (2 mg/ml dissolved in 0.5 % tylaxopol/saline solution, aerosolized for 30′) or vehicle (0.5% tyloxapol/saline solution, aerosolized for 30′), or dexamethasone (5 mg/kg i.p. injection). Untreated control groups included mice challenged with PBS alone. On day 45, mice were sacrificed, and samples were collected for further analysis.
IL-5, IL-13, eotaxin, TGF-β, KC, IL-17A, and MCP-1 levels in the BALF and anti-OVA IgE levels in serum were measured by ELISA technique using commercial DuoSet kits R&D Systems according to the instructions of the manufacturer. Results were expressed in levels of cytokines per ml of […] (pg/ml) or arbitrary units (A.U.).
The left lung was removed and fixed in 4% neutral phosphate-buffered formalin (pH 7.4)[10]. The tissues were dehydrated gradually in ethanol, embedded in paraffin, cut into 4 µm sections, stained with H&E, Gomori’s trichrome and periodic acid schiff (PAS), and examined under light microscopy by a pathologist in a double blinded manner. Images of lung sections were captured with a digital camera (Optronics DEI-470) connected to a microscope (Olympus IX70) with a magnification of ×40 or ×100. […]

[2] = system: PBMCs; assay: PBMCs proliferation (MTT); assay type: cell-based, human
Procedure: PBMCs in RPMI medium were seeded in a 96-well tissue culture plates at 5 × 10^3 cells/well (Cell Star, Frickenhausen, Germany). PBMCs were activated with vehicle (PBS) or anti-CD3 (5 μg/mL) plus soluble anti-CD28 (2 μg/mL) mAbs (BD Pharmingen, San Jose, CA, USA). Then, the cells were incubated at 37 °C and 5% CO2 for 48 h. Cell proliferation was assayed by MTT (3-(4,5-dimethylthiazol-2-yl)-2,5-diphenyltetrazolium bromide) assay (Roche Life Science, Mannheim, BW, Germany) following the manufacturer’s instructions. Briefly, 10 μL of MTT (3 mg/mL) was added to each well containing cells in 100 μL medium and incubated for 2 h at 37 °C. Then, 100 μL of lysis buffer was added allowing the dissolution of formazan crystals. After 15 min at room temperature the absorbance was read at 560 nm with reference of 690 nm using GloMax®-Multi Microplate Multimode Reader (Promega, Madison, Wisconsin, EUA).

[3] = system: Akt phosphorylation (Ser473) in lung, heart, liver; assay: Insulin stimulation analysis in liver, heart, and lung (pAkt); assay type: in vivo, mice; conditions: inhaled CL27c 2 mg/ml 30 min; insulin 1 UI/kg i.p.
Procedure: Animals were fasted overnight and, the day after, they were treated for 30 min with aerosolized CL27c (2 mg/ml in 0.5 % tylaxopol/saline solution). After 1 h from the CL27c treatment mice were administrated with insulin (1.0 UI kg^−1 diluted in PBS solution, Actrapid, Novo Nordisk, i.p. injection). Ten min after injection, the animals where sacrificed and tissues removed, frozen in liquid nitrogen, and homogenized in lysis buffer (50 mM Tris-HCl, pH = 8, 150 mM NaCl, 1% Triton X-100) supplemented with 50 mM NaF, 2 mM sodium orthovanadate, 1 mM sodium pyro-phosphate, and protease inhibitor cocktail (Roche).
Lung, liver, and heart samples were collected for western blot detection of akt phosphorilation levels. Protein samples were resolved by 10% SDS-PAGE and transferred on to PVDF (Immobilon™-P) membranes. The membranes were blocked with 5% BSA in 1x TBS with 0.3% Tween 20 for 30 min at […]. Then, the membranes were incubated overnight at 4 °C with primary antibodies (phosphorylated Akt serine 473, 1:1000, Cell Signaling Technology, Cat. Number 4060) and 1 h with HRP-conjugated secondary antibody (1:10000). […] For quantification, specific phosphorylation was calculated as the ratio of signals for phosphorylated Akt to the signal of total Akt detected. […]

[4] = CL27c 2 mg/ml aerosol or dexamethasone 5 mg/kg
[5] = aerosolized CL27c 2 mg/ml daily

## COC(=O)c1cccc(Cn2cc(-c3cccc4c(=O)cc(N5CCOCC5)[nH]c34)nn2)c1 [CL27c]
[1]; [4]
  accumulation of inflammatory cells in peribronchial and perivascular spaces: significantly decreased
  lung function: lung resistance (RL) and dynamic compliance (Cdyn): normalize lung function
  peribronchial fibrosis (fibrotic airway remodeling): significantly reduced
[1]; aerosolized CL27c 2 mg/ml
  methacholine-evoked airway hyperresponsiveness: not able to modify methacholine-evoked airway hyperresponsiveness
[1]; [5]
  metaplasia of goblet cells and mucus production (PAS): prevented OVA-induced metaplasia of goblet cells and mucus production
  reduction of tissue levels of eosinophil peroxidase (EPO): 55%
  reduction of tissue levels of myeloperoxidase (MPO): 50%
[1]; repeated administration
  Th2 mediators IL-5, IL-13, and Eotaxin: lowering of Th2 mediators
[2]; CL27c 5 μM
  anti-proliferative effect on PBMC relative to dexamethasone: comparable to the reference compound dexamethasone
[2]; stimulated with antibodies against CD28, CL27c 0.5 and 5 µM, concentration-dependent
  proliferation of PBMC: block proliferation
[3]
  insulin-evoked Akt phosphorylation (Ser473) in lungs: did not show elevation of protein kinase B (Akt) phosphorylation
  insulin-evoked Akt phosphorylation in heart or liver: insulin was able to normally increase Akt phosphorylation
